Laboratory results: paper PMC11778240, “Synthesis and preclinical evaluation of tigilanol tiglate analogs as latency-reversing agents for the eradication of HIV” (Science Advances, 2025)

Columns and labels:
[1] = target: T1, PKC-β fused to GFP (Homo sapiens, UniProt P05771); assay: PKC-GFP translocation assay in CHO-K1 cells (confocal microscopy); type: cell-based; details: 500 nM, within 10 min
T1 construct: host or cells: CHO-K1
Excerpt: (§1) Using confocal microscopy, this assay allows us to visualize, in real time, cell permeation and the ligand-induced translocation of specific PKC isoforms from the cytosol to the membranes of the cell—the hallmark of PKC activation ([29], [68]). […] In alignment with past studies on the activation of PKC in CHO-K1 cells ([22], [65], [69]), we observed strong plasma membrane translocation of PKC-β (Fig. 7C).
(§2) Agar stabs of DH5-alpha (high copy) bacterial cells, containing plasmids for expression of mammalian PKC-δ (Plasmid #: 178856) and PKC-β (Plasmid #: #112265) fused to EGFP under constitutive mammalian promoters CAG and CMV, respectively, were purchased from Addgene.
(§3) Upon receipt, these stabs were incubated at 37 °C in 5% CO2 for 24 hours to allow sufficient bacterial growth. Following incubation, a sterile pipette tip was utilized to streak bacteria onto LB agar plates that are positive for the respective antibiotic that selects for each plasmid. For bacteria containing Plasmid #: 178856, bacteria were streaked onto CellPro™ LB (Lennox) + Ampicillin 100 μg/ml while bacteria containing Plasmid #: 112265 was streaked onto CellPro™ LB (Miller) + Kanamycin 50 μg/ml and incubated for 24 hours at 37 °C in 5% CO2 in order to isolate single colonies of bacteria. Single, isolated bacterial colonies were selected utilizing a sterile pipette tip and placed in polypropylene culture tubes with vented stoppers containing 2mL of LB Broth Miller (Catalog No. BP1426-500) and the respective antibiotic for each plasmid at the recommended concentration of 100 μg/ml for ampicillin and 50 μg/ml for kanamycin. Following inoculation, these liquid cultures were placed on a shaker at 37 °C at 225rpm for 24 hours. The next day, the plasmids were sequestered and purified from the bacteria utilizing the Thermo Scientific™ GeneJET Plasmid Miniprep Kit (Catalog No. K0502).
(§4) PKC-β/PKC-δ plasmid purification
(§5) To sequester and purify plasmid from each culture tube, bacteria was resuspended in culture and transferred to sterile 1.7mL microcentrifuge tubes with 1 mL of bacteria placed into each tube. To harvest the bacteria, microcentrifuge tubes were placed in a microcentrifuge and spun at 8000 rpm for 2 minutes at room temperature. Note that all subsequent centrifugations were performed in a tabletop microcentrifuge at room temperature. Following centrifugation, the supernatant was decanted and 250 μL of Resuspension solution was added to the pelleted cells and vortexed.
(§6) Afterwards, 250 μL of Lysis Solution was added to the resuspended bacterial cells and tubes were inverted 4-6 times and allowed to incubate for no more than 5 minutes to avoid denaturation of the plasmid DNA. After lysing the bacterial cells, 350 μL of Neutralization Solution was immediately added and tubes were inverted 4-6 times. Tubes were then centrifugated for 5 minutes at 14,000 rpm to pellet the cell debris and chromosomal DNA. The supernatant was then carefully aspirated using a pipette, taking care not to distribute the white precipitate of cell and DNA debris and transferred to the GeneJET spin columns, provided in the GeneJET Miniprep Kit. The spin columns were subsequently centrifugated for 1 minute, the flow-through was discarded, and the column was placed back into the same collection tube. 500 μL of Wash Solution, diluted with 96% ethanol, was added to the column, and the column was centrifugated for 1 minute at 14,000 rpm.
(§7) The flow-through was discarded and the column was placed back into the same collection tube.
(§8) This wash process was repeated a second time, after which the spin columns were centrifugated for an additional 1 minute to ensure all residual Wash solution was removed from the plasmids.
(§9) The GeneJET spin columns were then transferred to new 1.7mL microcentrifuge tubes, and 50 μL of Elution Buffer was added to the center of the spin column to allow optimal elution of the plasmid
(§10) DNA. Before centrifugating for 2 minutes, the columns were allowed to incubate for 2 minutes at […]
(§11) room temperature. […]

[2] = target: T2, PKC-δ fused to GFP (Homo sapiens, UniProt Q05655); assay: as above; type: cell-based; details: 1500 nM, within 10 min
T2 construct: host or cells: CHO-K1
Excerpt: as §1, §2, §3, §4, §5, §6, §7, §8, §9, §10, §11

T1 sequence (P05771 whole entry, the tested form may be a part): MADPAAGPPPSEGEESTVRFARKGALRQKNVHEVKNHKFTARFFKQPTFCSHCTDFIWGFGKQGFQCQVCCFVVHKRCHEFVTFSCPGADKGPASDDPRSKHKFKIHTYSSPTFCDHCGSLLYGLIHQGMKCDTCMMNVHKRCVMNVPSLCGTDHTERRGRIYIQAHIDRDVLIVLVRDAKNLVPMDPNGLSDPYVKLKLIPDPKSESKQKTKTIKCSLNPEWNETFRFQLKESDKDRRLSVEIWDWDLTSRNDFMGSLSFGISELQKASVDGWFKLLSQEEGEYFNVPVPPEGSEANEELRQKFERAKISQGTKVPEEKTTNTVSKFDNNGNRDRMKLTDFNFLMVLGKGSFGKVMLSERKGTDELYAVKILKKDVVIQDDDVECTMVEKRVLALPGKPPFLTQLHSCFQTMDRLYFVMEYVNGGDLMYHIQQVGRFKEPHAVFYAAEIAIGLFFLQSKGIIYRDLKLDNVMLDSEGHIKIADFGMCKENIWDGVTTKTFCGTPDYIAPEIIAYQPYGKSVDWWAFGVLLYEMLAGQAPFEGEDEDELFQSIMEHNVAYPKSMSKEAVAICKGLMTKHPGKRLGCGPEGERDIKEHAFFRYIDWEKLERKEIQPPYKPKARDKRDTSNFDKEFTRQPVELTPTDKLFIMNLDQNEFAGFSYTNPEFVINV
T2 sequence (Q05655 whole entry, the tested form may be a part): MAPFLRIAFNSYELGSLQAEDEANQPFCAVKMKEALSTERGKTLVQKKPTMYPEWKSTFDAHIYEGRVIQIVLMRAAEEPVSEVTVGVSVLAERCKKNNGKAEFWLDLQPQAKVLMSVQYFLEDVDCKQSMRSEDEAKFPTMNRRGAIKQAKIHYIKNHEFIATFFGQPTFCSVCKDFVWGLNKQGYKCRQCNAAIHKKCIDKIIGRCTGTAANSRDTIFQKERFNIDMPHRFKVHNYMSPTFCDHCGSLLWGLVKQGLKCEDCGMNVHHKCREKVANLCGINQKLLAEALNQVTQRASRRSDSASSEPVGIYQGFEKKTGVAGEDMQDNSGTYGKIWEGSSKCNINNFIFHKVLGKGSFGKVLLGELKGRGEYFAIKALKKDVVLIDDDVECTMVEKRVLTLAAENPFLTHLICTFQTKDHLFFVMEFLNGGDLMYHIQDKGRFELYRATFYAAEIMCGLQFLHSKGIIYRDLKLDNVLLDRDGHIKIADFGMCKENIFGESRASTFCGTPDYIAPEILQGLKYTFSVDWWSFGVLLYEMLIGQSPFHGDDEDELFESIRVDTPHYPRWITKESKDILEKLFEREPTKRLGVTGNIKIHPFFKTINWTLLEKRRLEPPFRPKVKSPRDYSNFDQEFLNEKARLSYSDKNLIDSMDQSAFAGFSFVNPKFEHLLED

Compound | translocation of PKC-β-GFP in words [1] | translocation of PKC-δ-GFP in words [2]
C/C=C(\C)C(=O)O[C@@H]1[C@@H](C)[C@@]2(O)[C@H]([C@@H]3C(C)(C)[C@]13OC(=O)[C@@H](C)CC)[C@@H]1O[C@]1(CO)[C@@H](O)[C@]1(O)C(=O)C(C)=C[C@H]12 [EBC-46, Tigilanol tiglate] | effectively translocate PKC-β at 500 nM | selectively induced perinuclear translocation of PKC-δ
C/C=C(\C)C(=O)O[C@@H]1[C@@H](C)[C@@]2(O)[C@H]([C@@H]3C(C)(C)[C@]13OC(=O)Cc1cccc3ccccc13)[C@@H]1O[C@]1(CO)[C@@H](O)[C@]1(O)C(=O)C(C)=C[C@H]12 [SUW431] | effectively translocate PKC-β at 500 nM | strong perinuclear and plasma membrane translocation of PKC-δ
CC[C@H](C)C(=O)O[C@@]12[C@H](OC(C)(C)C)[C@@H](C)[C@@]3(O)[C@H]([C@@H]1C2(C)C)[C@@H]1O[C@]1(CO)[C@@H](O)[C@]1(O)C(=O)C(C)=C[C@H]13 [SUW430] | effectively translocate PKC-β at 500 nM | selectively induced perinuclear translocation of PKC-δ
